# Where “and” joins values, the source holds several entries; their conditions need not be identical. Identical values can stand only once.
# Legend:
# Bacillus anthracis STI-1 = test system: Bacillus anthracis STI-1; design: species or system Mice of CBA line; details: mouse, in vivo
# STI-PRTS = format: cell-based
# STI-1 = format: cell-based
# [1] = test system: Bacillus anthracis 71/12 (Tsenkovsky vaccine II); design: species or system outbred white mice; details: mouse, in vivo
molecule,measurement,setting,value
C[C@H]1c2cccc(O)c2C(=O)C2=C(O)[C@]3(O)C(=O)C(C(N)=O)=C(O)[C@@H](N(C)C)[C@@H]3[C@@H](O)[C@@H]21 [doxycycline],Death of animals among those taken for the experiment,Bacillus anthracis STI-1,3/3 and 1/3 and 0/3
ampicillin,Zone of culture growth delay at using discs with antibiotics,STI-PRTS,0 mm
same,Zone of culture growth delay at using discs with antibiotics,STI-1,4 mm
lyzozyme,Death of animal on day 2,[1],1
same,Death of animal on day 3,[1],3
same,Death of animal on day 6,[1],0
same,Death of animal on day 7,[1],0
same,Number of perished/Number of infected,[1],4/5
same,mortality,[1],80%
tetracycline [Tc],Zone of culture growth delay at using discs with antibiotics,STI-PRTS,0 mm
same,Zone of culture growth delay at using discs with antibiotics,STI-1,7 mm

# Reference: patent publication US20090053187A1 (priority 2005, published 2009)
